Measurements published in ChEMBL document CHEMBL1201862, “PubChem BioAssay data set” (2004).
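Interpolation was linear, between the two tested concentrations surrounding the appropriate level; five concentrations were tested over 48 hours in 96-well plates. GI50: concentration for 50% inhibition of growth.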 Activity calls are given as the source filed them. Rule as the data show it: active = GI50 up to about 1.1 µM and inactive = higher.

Legend:
Assay in all cases: NCI anticancer screen, dose series, 48 h
[1] = system: DLD-1
[2] = system: XF498
[3] = system: M19-MEL
[4] = system: LXFL 529
[5] = system: SNB-78
[6] = system: DMS-114
[7] = system: HOP-18
[8] = system: RXF 631
[9] = system: KM-20L2

Measured: GI50

CCSC1=C(C)N(/C=N/C(C)(C)C)CC1
inactive: [1] > 100 µM | [2] > 100 µM | [3] > 100 µM | [4] > 100 µM | [5] > 100 µM | [6] > 100 µM | [7] > 100 µM | [8] > 100 µM | [9] > 100 µM
